Molecules are shown by their SMILES.

`CCOC(=O)CCC(=O)C1=C(O)C(=O)N(c2nc3ccc(Cl)cc3s2)C1c1ccc(Cl)cc1` (stereo not drawn) [Compound 495] had a melting point of 244 to 245 °C.
With `O=C(COc1ccccc1)C1=C(O)C(=O)N(c2nc3ccc(Cl)cc3s2)C1c1ccccc1F` (stereo not drawn) [Compound 446], the melting point lay within 218 to 219 °C.
In turn, `CC(C)(C)C(=O)C1=C(O)C(=O)N(c2nc3ccc(F)cc3s2)C1c1ccc(F)cc1` (stereo not drawn) [Compound 424] showed a melting point of 232 to 233 °C.
Regarding `Cc1ccc(C(=O)C2=C(O)C(=O)N(c3nc4ccc(Cl)cc4s3)C2c2ccc(OCCO)cc2)o1` (stereo not drawn) [Compound 477], the melting point was 209 to 210 °C.
Compound `O=C(C1=C(O)C(=O)N(c2nc3ccc(Cl)cc3s2)C1c1ccccc1F)C1CC2C=CC1C2` (stereo not drawn) [Compound 579] registered a melting point of 205 to 206 °C.
Compound `COCCOc1ccc(CCC(=O)C2=C(O)C(=O)N(c3nc4c(Cl)cccc4s3)C2c2ccc(F)cc2)cc1` (stereo not drawn) [Compound 578] came in with a melting point of 182 to 183 °C.
Next, `Cc1ccc(C(=O)C2=C(O)C(=O)N(c3nc4ccc(F)cc4s3)C2c2ccccc2C)o1` (stereo not drawn) [Compound 627]: 214 to 215 °C; `CC(=O)C1=C(O)C(=O)N(c2nc3c(Cl)cccc3s2)C1c1ccc(F)cc1` (stereo not drawn) [Compound 426]: 231 to 232 °C; `O=C(C1=C(O)C(=O)N(c2nc3c(Cl)cccc3s2)C1c1ccc(F)cc1)c1nccs1` (stereo not drawn) [Compound 440]: 303 to 304 °C.
Next, `Cc1ccc(C(=O)C2=C(O)C(=O)N(Cc3nc4ccccc4[nH]3)C2c2ccc(F)cc2)o1` (stereo not drawn) [Compound 567]: 96 to 100 °C.
Next, `COCCOc1ccc(CCC(=O)C2=C(O)C(=O)N(c3nc4ccc(Cl)cc4s3)C2c2ccccc2F)cc1` (stereo not drawn) [Compound 575]: 219 to 220 °C; `CCOc1ccc2nc(N3C(=O)C(OC(C)=O)=C(C(=O)c4ccc(C)o4)C3c3ccc(OCCOC(C)=O)cc3)sc2c1` (stereo not drawn) [Compound 253]: 114 to 115 °C; `CCOc1ccc2nc(N3C(=O)C(O)=C(C(=O)c4ccc(C)o4)C3c3cccc(C#N)c3)sc2c1` (stereo not drawn) [Compound 220]: 226 to 227 °C.
`Cc1ccc(C(=O)C2=C(O)C(=O)N(c3nc4c(Cl)cccc4s3)C2c2ccc(F)c(F)c2)o1` (stereo not drawn) [Compound 463] gave a melting point of 269 to 270 °C.
For the compound `COCC(=O)C1=C(O)C(=O)N(c2nc3c(Cl)cccc3s2)C1c1ccccc1F` (stereo not drawn) [Compound 445], the melting point lay in the range of 231 to 233 °C.
Turning to `Cc1ccc(C(=O)C2=C(O)C(=O)N(c3nc4ccc(F)cc4s3)C2c2cccc3ccccc23)o1` (stereo not drawn) [Compound 618], the melting point lay within 251 to 252 °C.
With `COCCOc1ccc(CCC(=O)C2=C(O)C(=O)N(c3nc4ccc(Cl)cc4s3)C2c2ccc(F)cc2)cc1` (stereo not drawn) [Compound 576], the melting point lay in the range of 226 to 227 °C.
Next, `CCN(CC)c1ccc(C2C(C(=O)c3ccc(C)o3)=C(O)C(=O)N2c2nc3ccc(Cl)cc3s2)cc1` (stereo not drawn) [Compound 614]: 207 to 210 °C; `O=C(C1=C(O)C(=O)N(c2nc3ccc(F)cc3s2)C1c1ccc(F)cc1)C1CC1` (stereo not drawn) [Compound 455]: 221 to 223 °C; `Cc1ccc(C(=O)C2=C(O)C(=O)N(c3nc4c(Cl)cccc4s3)C2c2ccc3ccccc3c2)o1` (stereo not drawn) [Compound 601]: 261 to 262 °C.
For the compound `CCOc1ccc2nc(N3C(=O)C(O)=C(C(=O)c4ccc(C)o4)C3c3ccccc3)sc2c1` (stereo not drawn) [Compound 182], the melting point was 247 to 248 °C.
With `CC(=O)C1=C(O)C(=O)N(c2nc3ccc(Cl)cc3s2)C1c1ccccc1F` (stereo not drawn) [Compound 429], the melting point lay within 255 to 256 °C.
Regarding `Cc1ccc(C(=O)C2=C(O)C(=O)N(c3nc4ccc(S(C)(=O)=O)cc4s3)C2C2CCOC2)o1` (stereo not drawn) [Compound 180], the melting point fell in the range of 199 to 200 °C.
Compound `Cc1ccc(C(=O)C2=C(O)C(=O)N(C(CO)CO)C2c2ccccc2F)o1` (stereo not drawn) [Compound 434] yielded a melting point of 74 to 75 °C.

A word on the melting point: it is the temperature of the solid-liquid transition.

These data come from patent US20110130397A1, “PYRROLINONE COMPOUNDS AS INHIBITORS OF BACTERIAL PEPTIDYL TRNA HYDROLASE AND USES THEREOF” (priority 2006, published 2011).
